According to patent publication US4769364A, “Pyrimidin-5-yl phosphoric acid ester and thionophosphoric acid ester pesticides” (priority 1985, dated 1988):

Experiments:
[1] = Toxicity to warm-blooded animals, LD50 on rats (oral); conditions: rat, in vivo, oral (stomach tube), dissolved in polyethylene glycol LUTROL
Description: Toxicity to warm-blooded animals, LD50 values on rats (oral)
The values were determined in the customary manner. The active compounds were dissolved in polyethylene glycol LUTROL (trademark of BASF AG, Ludwigshafen, Federal Republic of Germany) and the solution was administered to rats with a stomach tube.

Phorbia antiqua maggots = assay: Critical concentration test/soil insects: Phorbia antiqua maggots (in the soil); format: in vivo; conditions: 2.5 ppm active compound in soil; 2 to 7 days; 100% = all test insects killed
Description: (§1) Critical concentration test/soil insects
Test insect: Phorbia antiqua maggots (in the soil)
(§2) Solvent: 3 parts by weight of acetone
Emulsifier: 1 part by weight alkylaryl polyglycol ether.
(§3) To produce a suitable preparation of active compound, 1 part by weight of active compound is mixed with the stated amount of solvent, the stated amount of emulsifier is added and the concentrate is diluted with water to the desired concentration.
(§4) The preparation of active compound is intimately mixed with soil. The concentration of the active compound in the preparation is of practically no importance, only the amount by weight of active compound per unit volume of soil, which is given in ppm (=mg/liter) being decisive. The soil is filled into pots and the pots are left to stand at room temperature.
After 24 hours, the test insects are introduced into the treated soil, and after a further 2 to 7 days the degree of effectiveness of the active compound is determined in % by counting the dead and live test insects. The degree of effeciveness is 100% if all the test insects have been killed and is 0% if just as many test insects are still alive as in the case of the untreated control.

[2] = test system: Diabrotica balteata larvae; assay: Critical concentration test/soil insects: Diabrotica balteata larvae in the soil; format: in vivo; conditions: 168 h, 2.5 ppm active compound in soil, after a further 7 days, 100% = all test insects killed, read-out: degree of effectiveness
Description: as §1
Test insect: Diabrotica balteata larvae in the soil
as §2
(§5) Emulsifier: 1 part by weight of alkylaryl polyglycol ether.
as §3
as §4, with “into 0.5 liter” for “into”, “these” for “the pots”, “20° C.” for “room temperature.”
Immediately after setting up the test, 6 pregerminated grains of corn are placed in each pot. After 2 days, the corresponding test insects are introduced into the treated soil. After a further 7 days the degree of effectiveness of the active compound is determined in % by counting the dead and live test insects. The degree of effectiveness is 100% if all the test insects have been killed and is 0% if just as many test insects are still alive as in the case of the untreated control.

Meloidogyne incognita = assay: Critical concentration test/nematodes: Meloidogyne incognita; format: in vivo; conditions: 20 ppm active compound in soil; lettuce, four weeks, 27° C.; 100% = infestation completely avoided
Description: Critical concentraion test/nematodes
Test nematode: Meloidogyne incognita
as §2, §5, §3
The preparation of active compound is intimately mixed with soil which is heavily infested with the test nematodes. The concentration of the active compound in the preparation is of practically no importance, only the amount of active compound per unit volume of soil, which is given in ppm, being decisive. The treated soil is filled into pots, lettuce is sown in and the pots are kept at a greenhouse temperature of 27° C.
After four weeks, the lettuce roots are examined for infestation with nematodes (root galls), and the degree of effectiveness of the active compound is determined in %. The degree of effectiveness is 100% if infestation is completely avoided and is 0% if the infestation is just as high as in the case of the control plants in untreated soil which has been infested in the same manner.

[3] = test system: Lucilia cuprina OP res. larvae; assay: Test with Lucilia cuprina OP res. larvae; format: in vivo; conditions: 10 ppm active compound, 24 hours, read-out: destruction
Description: Test with Lucilia cuprina OP res. larvae
35 parts by weight of ethylene glycol monoethyl ether
35 parts by weight of nonylphenol polyglycol ether.
To produce a suitable preparation of active compound, three parts by weight of active compound are mixed with seven parts by weight of the abovementioned solvent mixture and the concentrate thus obtained is diluted with water to the particular desired concentration.
About 20 Lucilia cuprina res. larvae are introduced into a test tube which contains approx. 1 cm^2 of horse muscle and 0.5 ml of the preparation of active compound. After 24 hours, the degree of destruction is determined.

Psoroptes ovis = assay: Test with Psoroptes ovis; format: in vivo; conditions: 10 ppm active compound, 24 hours, read-out: destruction
Description: 35 parts by weight of ethylene glycol monomethyl ether
35 parts by weight of nonylphenol polyglycol ether
To produce a suitable preparation of active compound, three parts by weight of active compound are mixed with seven parts by weight of the abovementioned solvent mixture and the concentrate thus obtained is diluted with water to the desired concentration.
About 10-25 Psoroptes ovis are introduced into 1 ml of the active compound preparation to be tested, this having been pipetted into tablet nests of a deep-drawn package. After 24 hours, the degree of destruction is determined.

| Structure (SMILES) | LD50 [1] | degree of effectiveness (Phorbia antiqua maggots) | mortality at 2.5 ppm [2] | degree of effectiveness (Meloidogyne incognita) | mortality at 10 ppm [3] | mortality at 10 ppm (Psoroptes ovis) |
| --- | --- | --- | --- | --- | --- | --- |
| CCOP(=S)(OCC(F)(F)C(F)F)Oc1cnc(C(C)(C)C)nc1 (stereo not shown) [Example 2] | 50 mg/kg | 100% | 100% | 100% | 100% | 100% |
| CCCOP(=S)(OCC)Oc1cnc(C(C)C)nc1 (stereo not shown) [known compound (B), reference compound] | – | 100% | – | 95% | – | – |
| CCOP(=S)(OCC)Oc1cnc(C(C)(C)C)nc1 [Comparison compound (A), reference compound] | 1 to 2.5 mg/kg | 100% | 100% | 100% | – | – |
| CCOP(=S)(OCC(F)(F)F)Oc1cnc(C(C)(C)C)nc1 (stereo not shown) [Example 1, O-ethyl O-(2,2,2-trifluoroethyl) O-(2-tert.-butyl-pyrimidin-5-yl)thionophosphate] | 100 to 250 mg/kg | 95% | 100% | 95% | – | – |
